Measurements taken from US4033960A, “2-Mercaptoquinoxaline-di-N-oxide products and a method for their preparation” (Bayer Aktiengesellschaft, priority 1973, dated 1977).
In brackets after ≈: the same amount, converted by molar mass.

How the values were obtained:
Experiment in all cases: Minimum inhibitory concentration by the plate test (agar)
Assay type in all cases: cell-based
[1] = tested on: Escherichia coli A 261; details: 0-10 colonies formed, pH 7.4; for Minimum inhibitory concentration: per ml of nutrient medium, 5,000 cells/10 ml
Procedure: (§1) […] The bacteria to be tested are cast, together with the nutrient medium and the test substance distributed in the agar, into a Petri dish. The number of bacterial cells is 5,000/10 ml of nutrient medium. The minimum inhibitory concentration is the concentration at which 0-10 colonies are formed.

[2] = tested on: Staphylococcus aureus 133; details: per ml of nutrient medium, 5,000 cells/10 ml, 0-10 colonies formed, pH 7.4
Procedure: as §1

[3] = tested on: Escherichia coli C 165; details: 0-10 colonies formed, pH 7.4; for Minimum inhibitory concentration: per ml of nutrient medium, 5,000 cells/10 ml
Procedure: as §1

[4] = tested on: Proteus vulgaris 1017; details: per ml of nutrient medium, 5,000 cells/10 ml, 0-10 colonies formed, pH 7.4
Procedure: as §1

[5] = tested on: Klebsiella 8085; details: per ml of nutrient medium, 5,000 cells/10 ml, 0-10 colonies formed, pH 7.4
Procedure: as §1

Compound | Minimum inhibitory concentration [1] [µg/mL] | Minimum inhibitory concentration [2] [µg/mL] | Minimum inhibitory concentration [3] [µg/mL] | Minimum inhibitory concentration [4] [µg/mL] | Minimum inhibitory concentration [5] [µg/mL] | MIC ([1]; A261, per ml of nutrient medium, 5,000 cells/10 ml) [µg/mL] | MIC [4] [µg/mL] | MIC [2] [µg/mL] | MIC ([3]; C165, per ml of nutrient medium, 5,000 cells/10 ml) [µg/mL] | MIC [5] [µg/mL]
6(7)-bromo-2-mercapto-3-methyl-quinoxaline-di-N-oxide [Example 4] | 100 | 100 | 100 | – | – | – | – | – | – | –
6(7)-chloro-2-mercapto-3-methyl-quinoxaline-di-N-oxide [Example 2] | 128 | 128 | 128 | 64 to 128 | 128 | – | – | – | – | –
6(7)-fluoro-2-mercapto-3-methyl-quinoxaline-di-N-oxide [Example 3] | 128 | 128 | 64 to 128 | 128 | – | – | – | – | – | –
6(7)-methoxy-2-mercapto-3-methyl-quinoxaline-di-N-oxide [Example 7] | 128 | 128 | 64 to 128 | 128 | – | – | – | – | – | –
Cc1c(S)[n+]([O-])c2ccccc2[n+]1[O-] [Example 1, 2-Mercapto-3-methylquinoxaline-di-N-oxide] | – | – | – | – | – | 50 to 100 (≈ 240 to 480 µM) | 100 (≈ 480 µM) | 100 (≈ 480 µM) | 50 to 100 (≈ 240 to 480 µM) | 10 (≈ 48 µM)
